Assay results from PubChem BioAssay AID1963845 (Molecular Pharmacology Branch, DTP, NCI, 2024).
pIC50: −log10 of the molar value.

Test system: 429239-143-T-J1-PDC complex spheroid viability
Experiment: Anticancer human tumor 429239-143-T-J1-PDC patient-derived small cell lung carcinoma cell line growth inhibition [POLQ]
Settings: for pIC50: curve of first compound; for viability, T/C: stronger effect = lower value
Summary of the method: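 PDC + HUVEC + MSC complex spheroids; POLQ inhibitors ± partner drugs; top conc. at/near clinical Cmax, else 10 microM (SN-38 1 microM), half-log dilutions; 37 degrees C, 5% CO2.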

[1] = second compound 0.0316 µM, first compound 0.0316 µM
[2] = second compound 0.0316 µM, first compound 0.1 µM
[3] = second compound 0.0316 µM, first compound 0.316 µM
[4] = second compound 0.0316 µM, first compound 1 µM
[5] = second compound 0.0316 µM, first compound 3.16 µM
[6] = second compound 0.0316 µM, first compound 10 µM
[7] = second compound 0.1 µM, first compound 0.0316 µM
[8] = second compound 0.1 µM, first compound 0.1 µM
[9] = second compound 0.1 µM, first compound 0.316 µM
[10] = second compound 0.1 µM, first compound 1 µM
[11] = second compound 0.1 µM, first compound 3.16 µM
[12] = second compound 0.1 µM, first compound 10 µM
[13] = second compound 0.316 µM, first compound 0.0316 µM
[14] = second compound 0.316 µM, first compound 0.1 µM
[15] = second compound 0.316 µM, first compound 0.316 µM
[16] = second compound 0.316 µM, first compound 1 µM
[17] = second compound 0.316 µM, first compound 3.16 µM
[18] = second compound 0.316 µM, first compound 10 µM
[19] = second compound 1 µM, first compound 0.0316 µM
[20] = second compound 1 µM, first compound 0.1 µM
[21] = second compound 1 µM, first compound 0.316 µM
[22] = second compound 1 µM, first compound 1 µM
[23] = second compound 1 µM, first compound 3.16 µM
[24] = second compound 1 µM, first compound 10 µM
[25] = second compound 3.16 µM, first compound 0.0316 µM
[26] = second compound 3.16 µM, first compound 0.1 µM
[27] = second compound 3.16 µM, first compound 0.316 µM
[28] = second compound 3.16 µM, first compound 1 µM
[29] = second compound 3.16 µM, first compound 3.16 µM
[30] = second compound 3.16 µM, first compound 10 µM
[31] = second compound 10 µM, first compound 0.0316 µM
[32] = second compound 10 µM, first compound 0.1 µM
[33] = second compound 10 µM, first compound 0.316 µM
[34] = second compound 10 µM, first compound 1 µM
[35] = second compound 10 µM, first compound 3.16 µM
[36] = second compound 10 µM, first compound 10 µM
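Also: luminescence signal used as surrogate measure of viable cells; spheroids exposed to compounds for seven days before readout.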
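For viability, T/C in this document: 100% = DMSO vehicle control viability as luminescence relative to vehicle.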

CC1COCCN1c1cc(C2(S(C)(=N)=O)CC2)nc(-c2ccnc3[nH]ccc23)n1 (stereo not given) + Cc1cccc(N(C)C(=O)C2C(O)CCN2c2nc(C)cc(C(F)(F)F)c2C#N)c1
pIC50 (second compound 0.0316 µM): 5.66 | pIC50 (second compound 0.1 µM): 5.68 | pIC50 (second compound 0.316 µM): 5.69 | pIC50 (second compound 1 µM): 5.68 | pIC50 (second compound 3.16 µM): 5.63 | pIC50 (second compound 10 µM): 5.62 | viability, T/C [1]: 108% | viability, T/C [2]: 105% | viability, T/C [3]: 92.9% | viability, T/C [4]: 77.3% | viability, T/C [5]: 37.2% | viability, T/C [6]: 15.9% | viability, T/C [7]: 105% | viability, T/C [8]: 106% | viability, T/C [9]: 96.7% | viability, T/C [10]: 72.9% | viability, T/C [11]: 37.6% | viability, T/C [12]: 16% | viability, T/C [13]: 101% | viability, T/C [14]: 99.6% | viability, T/C [15]: 97.2% | viability, T/C [16]: 73.6% | viability, T/C [17]: 34.9% | viability, T/C [18]: 17.3% | viability, T/C [19]: 91.2% | viability, T/C [20]: 98.9% | viability, T/C [21]: 89.7% | viability, T/C [22]: 75.7% | viability, T/C [23]: 35.8% | viability, T/C [24]: 17.7% | viability, T/C [25]: 96.9% | viability, T/C [26]: 97.6% | viability, T/C [27]: 94.5% | viability, T/C [28]: 71.3% | viability, T/C [29]: 42.6% | viability, T/C [30]: 18.3% | viability, T/C [31]: 105% | viability, T/C [32]: 103% | viability, T/C [33]: 98.4% | viability, T/C [34]: 60.2% | viability, T/C [35]: 50.3% | viability, T/C [36]: 17.8%

CC1COCCN1c1cc(C2(O)CC3CCC(C2)O3)c2cnn(-c3ccn[nH]3)c2n1 (stereo not given) + COC1C(OC(N)=O)C(O)C(Oc2ccc3c(O)c(NC(=O)c4ccc(O)c(CC=C(C)C)c4)c(=O)oc3c2C)OC1(C)C
pIC50 (second compound 0.0316 µM): 7.31 | pIC50 (second compound 0.1 µM): 7.20 | pIC50 (second compound 0.316 µM): 7.31 | pIC50 (second compound 1 µM): 7.18 | pIC50 (second compound 3.16 µM): 7.24 | pIC50 (second compound 10 µM): 7.36 | viability, T/C [1]: 60.6% | viability, T/C [2]: 32.4% | viability, T/C [3]: 15.4% | viability, T/C [4]: 9.3% | viability, T/C [5]: 7.39% | viability, T/C [6]: 6.59% | viability, T/C [7]: 69.8% | viability, T/C [8]: 37.4% | viability, T/C [9]: 16% | viability, T/C [10]: 9.73% | viability, T/C [11]: 7.67% | viability, T/C [12]: 5.38% | viability, T/C [13]: 62.4% | viability, T/C [14]: 28.4% | viability, T/C [15]: 18.1% | viability, T/C [16]: 9.94% | viability, T/C [17]: 6.92% | viability, T/C [18]: 5.8% | viability, T/C [19]: 67.5% | viability, T/C [20]: 39.9% | viability, T/C [21]: 19.2% | viability, T/C [22]: 7.99% | viability, T/C [23]: 7.48% | viability, T/C [24]: 5.25% | viability, T/C [25]: 69.7% | viability, T/C [26]: 31.6% | viability, T/C [27]: 17.1% | viability, T/C [28]: 8.72% | viability, T/C [29]: 6.53% | viability, T/C [30]: 5.31% | viability, T/C [31]: 56.7% | viability, T/C [32]: 32% | viability, T/C [33]: 18.1% | viability, T/C [34]: 8.41% | viability, T/C [35]: 9.41% | viability, T/C [36]: 5.38%

C#Cc1c(F)ccc2cc(O)cc(-c3ncc4c(N5CC6CCC(C5)N6)nc(OCC56CCCN5CC(F)C6)nc4c3F)c12 (stereo not given) + COC1C(OC(N)=O)C(O)C(Oc2ccc3c(O)c(NC(=O)c4ccc(O)c(CC=C(C)C)c4)c(=O)oc3c2C)OC1(C)C
pIC50 (second compound 0.0316 µM): < 5.00 | pIC50 (second compound 0.1 µM): < 5.00 | pIC50 (second compound 0.316 µM): < 5.00 | pIC50 (second compound 1 µM): < 5.00 | pIC50 (second compound 3.16 µM): < 5.00 | pIC50 (second compound 10 µM): < 5.00 | viability, T/C [1]: 109% | viability, T/C [2]: 92.7% | viability, T/C [3]: 113% | viability, T/C [4]: 92.9% | viability, T/C [5]: 99.9% | viability, T/C [6]: 92.9% | viability, T/C [7]: 104% | viability, T/C [8]: 113% | viability, T/C [9]: 103% | viability, T/C [10]: 97.7% | viability, T/C [11]: 93.2% | viability, T/C [12]: 91.1% | viability, T/C [13]: 104% | viability, T/C [14]: 95.3% | viability, T/C [15]: 99.2% | viability, T/C [16]: 98.8% | viability, T/C [17]: 95.2% | viability, T/C [18]: 106% | viability, T/C [19]: 94.7% | viability, T/C [20]: 106% | viability, T/C [21]: 96% | viability, T/C [22]: 105% | viability, T/C [23]: 98.8% | viability, T/C [24]: 97.4% | viability, T/C [25]: 103% | viability, T/C [26]: 101% | viability, T/C [27]: 102% | viability, T/C [28]: 92.9% | viability, T/C [29]: 114% | viability, T/C [30]: 98.2% | viability, T/C [31]: 101% | viability, T/C [32]: 98.7% | viability, T/C [33]: 91.5% | viability, T/C [34]: 92.5% | viability, T/C [35]: 106% | viability, T/C [36]: 102%

COc1ccc([C@@H](O)c2cc(-c3ncnc4cc(N5CCOCC5)ccc34)c(F)cc2Cl)nn1 + COC1C(OC(N)=O)C(O)C(Oc2ccc3c(O)c(NC(=O)c4ccc(O)c(CC=C(C)C)c4)c(=O)oc3c2C)OC1(C)C
pIC50 (second compound 0.0316 µM): 5.51 | pIC50 (second compound 0.1 µM): 5.48 | pIC50 (second compound 0.316 µM): 5.40 | pIC50 (second compound 1 µM): 5.52 | pIC50 (second compound 3.16 µM): 5.42 | pIC50 (second compound 10 µM): 5.44 | viability, T/C [1]: 99.5% | viability, T/C [2]: 89.1% | viability, T/C [3]: 94.5% | viability, T/C [4]: 85.6% | viability, T/C [5]: 49.1% | viability, T/C [6]: 8.54% | viability, T/C [7]: 96.2% | viability, T/C [8]: 87.7% | viability, T/C [9]: 100% | viability, T/C [10]: 87.2% | viability, T/C [11]: 51.9% | viability, T/C [12]: 10.8% | viability, T/C [13]: 109% | viability, T/C [14]: 101% | viability, T/C [15]: 99.4% | viability, T/C [16]: 85.4% | viability, T/C [17]: 60% | viability, T/C [18]: 9.63% | viability, T/C [19]: 103% | viability, T/C [20]: 96.8% | viability, T/C [21]: 92.5% | viability, T/C [22]: 76.4% | viability, T/C [23]: 48.7% | viability, T/C [24]: 9.8% | viability, T/C [25]: 96.6% | viability, T/C [26]: 102% | viability, T/C [27]: 91.1% | viability, T/C [28]: 93.4% | viability, T/C [29]: 57% | viability, T/C [30]: 11.2% | viability, T/C [31]: 107% | viability, T/C [32]: 107% | viability, T/C [33]: 95.3% | viability, T/C [34]: 78.3% | viability, T/C [35]: 59.3% | viability, T/C [36]: 8.07%

CCc1cc2c(N3CCc4c(cc(Cn5ccnc5)cc4-c4cn(C)nc4C(F)(F)F)C3=O)cc(C)nc2c(OC)n1 + COC1C(OC(N)=O)C(O)C(Oc2ccc3c(O)c(NC(=O)c4ccc(O)c(CC=C(C)C)c4)c(=O)oc3c2C)OC1(C)C
pIC50 (second compound 0.0316 µM): 5.83 | pIC50 (second compound 0.1 µM): 5.65 | pIC50 (second compound 0.316 µM): 5.86 | pIC50 (second compound 1 µM): 5.70 | pIC50 (second compound 3.16 µM): 5.85 | pIC50 (second compound 10 µM): 6.15 | viability, T/C [1]: 85.5% | viability, T/C [2]: 85.1% | viability, T/C [3]: 70.6% | viability, T/C [4]: 50% | viability, T/C [5]: 46.1% | viability, T/C [6]: 29% | viability, T/C [7]: 94.5% | viability, T/C [8]: 88.7% | viability, T/C [9]: 70% | viability, T/C [10]: 64.3% | viability, T/C [11]: 43.4% | viability, T/C [12]: 33.4% | viability, T/C [13]: 95.2% | viability, T/C [14]: 95% | viability, T/C [15]: 65.1% | viability, T/C [16]: 57.8% | viability, T/C [17]: 41.5% | viability, T/C [18]: 40.4% | viability, T/C [19]: 90.2% | viability, T/C [20]: 76% | viability, T/C [21]: 65.8% | viability, T/C [22]: 69.1% | viability, T/C [23]: 37.8% | viability, T/C [24]: 30.5% | viability, T/C [25]: 83.8% | viability, T/C [26]: 83.3% | viability, T/C [27]: 81.7% | viability, T/C [28]: 52.6% | viability, T/C [29]: 44.2% | viability, T/C [30]: 31.1% | viability, T/C [31]: 88.2% | viability, T/C [32]: 82.8% | viability, T/C [33]: 61.6% | viability, T/C [34]: 44% | viability, T/C [35]: 46.3% | viability, T/C [36]: 34.1%
